“Also recorded” adds a separate entry of the source. Square brackets hold non-standard residues; d marks the D form. Ends that are not written are not given here. Peptide text beside a SMILES is read from it. Some results are limits rather than exact numbers.

Results on seven molecules are retold here after US11965006B2, “Antimicrobial and anti-cancer therapy” (UNIVERSITY OF PITTSBURGH—OF THE COMMONWEALTH SYSTEM OF …, priority 2016, dated 2024).

In data set [1] the test system is Enterococcus faecium MDR clinical isolates. Type of data set: cell-based. To be noted: MDR clinical isolates, 18 h. The method, then: (§1) The bactericidal activities were examined using standard bacterial culture media (MHB) without the inclusion of human blood.
(§2) Tables 3 and 4 provide the MIC data for the tested AMPs against a variety of infectious species. The following strains were tested: Enterococcus faecium MDR clinical isolates Ef 25153 and Ef 26125; methicillin-resistant Staphylococcus aureus (MRSA) clinical isolates USA300 and 150-10; Klebsiella pneumonia MDR clinical isolates C3, C5, A5, D7 and E6; and Pseudomonas aeruginosa MDR clinical isolates PA 82-8 and PA 129-5. […] Table 5 provides the data for the D-amino acid substituted AMPs and their bactericidal activities against various Klebsiella pneumonia multi-drug resistant (MDR) clinical isolates. All odd number Kp bacteria (isolated prior to colistin treatment; colistin sensitive) are paired with the corresponding even number Kp bacteria (isolated after colistin treatment; colistin resistant) from the same patient. O.D. readings represent the bacterial growth with a background reading of about 0.049+/−0.003.

Data set [2] relates to Klebsiella pneumonia MDR clinical isolates. Type of data set: cell-based. To be noted: 18 h. The method, then: as §1, §2
The subject of data set [3] is methicillin-resistant Staphylococcus aureus (MRSA) clinical isolates. Type of data set: cell-based. Particulars: methicillin-resistant clinical isolates, 18 h. How it is done: as §1, §2
Data set [4] has as its system Pseudomonas aeruginosa MDR clinical isolates. Type of data set: cell-based. Particulars: MDR clinical isolates, 18 h. How it is done: as §1, §2
A further data set deals with P. aeruginosa. Description: In vivo respiratory P. aeruginosa infection. Particulars: high dosage bacterial inoculation, FIG. 16.
Data set [5] relates to P. aeruginosa lipopolysaccharide (LPS)-induced secretion of tumor necrosis factor (TNF) in Raw (264.7) Cells. The data set is described as follows: Neutralization of LPS-induced TNF secretion. To be noted: 1 μg/ml LPS. Type of data set: cell-based. How it is done:
Anti-inflammatory activity is based on the determination of cytokine stimulation of major inflammatory (e.g. TNF) or anti-inflammatory (e.g., IL-10) cytokines. For in vitro studies, TNF is measured using culture medium from LPS-stimulated macrophage cultures in the presence or absence of peptide treatment. For in vivo studies, cytokine levels in bronchoalveolar lavage (BAL) fluid were quantified using the mouse cytokine multiplex panel assay (Milliplex; Millipore, Billerica, Mass.). The expressions of cytokines were analyzed using the Luminex assay system, based on manufacturer's instructions and our previous publication. Standard recombinant protein solution was used to generate a standard curve for each analyzed protein. Absolute cytokine concentrations were calculated from the standard curve for each cytokine.
A high dosage (1 μg/ml) of LPS was used to stimulate the TNF secretion in raw cells.

Another data set relates to Pseudomonas aeruginosa. Type of data set: cell-based. Particulars: 18 h. How it is done:
as §1
FIG. 5 illustrates the bactericidal activity of the 30 amino acid AMP series against Pseudomonas aeruginosa (by kinetic assay) over time (hours). […] OD reading, at 570 nm, represents bacterial growth; background reading (˜0.05) was subtracted from sample readings. Bolded concentration indicates the determined MIC. For example, MIC for SEQ ID No. 4 was 4 μM, MIC for SEQ ID No. 8 was 2 μM, MIC for SEQ ID No. 7 was 2 μM, MIC for SEQ ID No. 5 was 2 μM, MIC for SEQ ID No. 6 was 2 μM, and MIC for SEQ ID No. 9 was 2 μM.
FIG. 6 illustrates the bactericidal activity of the 24 amino acid AMPs series against Pseudomonas aeruginosa (by kinetic assay) over time (hours). […] OD reading, at 570 nm, represents bacterial growth; background reading (˜0.05) was subtracted from sample readings. Bolded concentration indicates the determined MIC.

The subject of another data set is Hep2 epithelial cells. The data set is described as follows: Hep2 cytopathology in RSV plaque assay. Type of data set: cell-based. Particulars: 32 μM. The method, then:
Using a standard plaque assay, RSV replication was quantified in permissive Hep2 epithelial cells in the presence or absence of various AMPs. RSV plaque assays were used to determine the minimum dose required to induce Hep2 cytopathology and maximum anti-viral effects. Experimental controls included Hep2 cells+/−RSV and Hep-2 cells with AMP only.
Hep2 control cells without the AMP were also plated. Both plates were infected with the same dilution of A2 RSV virus. There is extensive sloughing of cells treated with the peptide (top plate) as compared to cells which were not (bottom plate), FIG. 18.

Data set [6] is described as follows: In vivo pulmonary toxicity. Also noted: species or system mouse. How it is done: Pulmonary toxicity was tested in mouse lung.
In a further data set the test system is MRSA USA300. The data set is described as follows: Antimicrobial activity of SPLUNC1 proteins (FIG. 2B). Type of data set: cell-based. To be noted: MRSA USA300, FIG. 2B. An excerpt:
(§3) The AMPs disclosed herein were derived from the naturally secreted antimicrobial protein SPLUNC1. […] FIG. 2C) illustrates the alpha helical structure of alpha4 (A4), the 30 residue sequence used as the template to design the disclosed AMPs listed in Table 2.

In the next data set the test system is S.A. ATCC49775. Description: Antimicrobial activity of SPLUNC1 proteins (FIG. 2A). Type of data set: cell-based. To be noted: S.A. ATCC49775, FIG. 2A.
Excerpt: as §3

“LKKWWKKVKGLLGGLLGK [SEQ ID No. 19, LKKWWKKVKGLLGGLLGK]”: in [1], the “MIC Ef 25153” value is under 2 µM and the “MIC Ef 26125” value was under 2 µM. In data set [2], the “MIC A5” value is under 2 µM, the “MIC C3” value was under 2 µM, the “MIC D7” value is under 2 µM and the “MIC E6” value was under 2 µM. Moreover, in data set [3], the “MIC MRSA 150-10” value is under 1 µM and the “MIC MRSA USA300” value was under 2 µM. Moreover, in data set [4], the “MIC PA82 82-8” value was found to be 8 µM and the “MIC PA 129-5” value was under 1 µM. The “antimicrobial activity against respiratory P. aeruginosa infection” value in the data set with P. aeruginosa is listed as “excellent antimicrobial activity”. Besides, in data set [5], the “neutralizing LPS-induced TNF secretion” value is reported as “good activity; also recorded: Display Neutralizing Activities”.

In the case of “ILKKWWKTSGGLLGGLLGKVTSVIKGLNNI [SEQ ID No. 4]”, in [1], the “MIC Ef 25153” value was over 4 µM and the “MIC Ef 26125” value is under 2 µM. In data set [2], the “MIC A5” value is over 4 µM, the “MIC C3” value was over 4 µM, the “MIC C5” value is 4 µM and the “MIC D7” value is under 2 µM. Moreover, the “MIC E6” value in [2] is over 4 µM. For the same molecule, in data set [3], the “MIC MRSA 150-10” value was over 4 µM and the “MIC MRSA USA300” value was over 4 µM. In data set [4], the “MIC PA82 82-8” value is over 4 µM and the “MIC PA 129-5” value came out at 4 µM. The “neutralizing LPS-induced TNF secretion” value in [5] is on record as “good activity; also recorded: display Neutralizing Activities”. This molecule also returned an MIC with Pseudomonas aeruginosa of 4 µM.

Consider “ILKKWWKTSKGLLGGLLGKVTSVIKGLKNI [SEQ ID No. 6]”, for which, in data set [1], the “MIC Ef 25153” value is over 4 µM and the “MIC Ef 26125” value is under 1 µM. For the same molecule, in data set [2], the “MIC A5” value was over 4 µM, the “MIC C3” value turned out to be 4 µM, the “MIC C5” value turned out to be 4 µM and the “MIC D7” value came to 4 µM. The “MIC E6” value in data set [2] came out at 4 µM. In data set [3], the “MIC MRSA 150-10” value was under 2 µM and the “MIC MRSA USA300” value is over 4 µM. For the same molecule, in data set [4], the “MIC PA82 82-8” value was over 4 µM and the “MIC PA 129-5” value is over 4 µM. In addition, the “neutralizing LPS-induced TNF secretion” value in [5] is “display Neutralizing Activities”. The same molecule came in with an MIC in the data set with Pseudomonas aeruginosa of 2 µM.

In the case of `CC(C)[C@@H](NC(=O)[C@H](Cc1c[nH]c2ccccc12)NC(=O)[C@H](CCCNC(=N)N)NC(=O)[C@H](CCCNC(=N)N)NC(=O)[C@H](NC(=O)[C@H](NC(=O)[C@H](CCCNC(=N)N)NC(=O)[C@H](NC(=O)[C@H](NC(=O)[C@H](CCCNC(=N)N)NC(=O)[C@H](CCCNC(=N)N)NC(=O)[C@H](Cc1c[nH]c2ccccc12)NC(=O)[C@H](NC(=O)[C@H](CCCNC(=N)N)NC(=O)[C@H](CCCNC(=N)N)NC(=O)[C@H](NC(=O)[C@H](CCCNC(=N)N)NC(=O)[C@H](CCCNC(=N)N)NC(=O)[C@H](NC(=O)[C@H](Cc1c[nH]c2ccccc12)NC(=O)[C@H](CCCNC(=N)N)NC(=O)[C@@H](N)CCCNC(=N)N)C(C)C)C(C)C)C(C)C)C(C)C)C(C)C)C(C)C)C(C)C)C(=O)N[C@@H](CCCNC(=N)N)C(=O)N[C@@H](CCCNC(=N)N)C(=O)O` [SEQ ID No. 34] (H-RRW[dV]RR[dV]RR[dV]WRR[dV][dV]R[dV][dV]RRW[dV]RR-OH; N-terminus and C-terminus assumed), in the data set with Hep2 epithelial cells, the “cytopathology in Hep2 cells” value is “caused cytopathology”. The “recruitment of leukocytes (a measure of inflammation)” value in data set [6] (at four times the concentration of SEQ ID No. 26) is “significantly lower than SEQ ID No. 26”. Further, in data set [6] (response to the hand grab), the “behaviour of mice after treatment” value is “more active and responsive”.

Regarding “LKKWWKTVKGLLGGLLGKVTSVIK [SEQ ID No. 14]”, in data set [1], the “MIC Ef 25153” value is under 2 µM and the “MIC Ef 26125” value was under 2 µM. For the same molecule, in [2], the “MIC A5” value was over 4 µM, the “MIC C3” value is under 2 µM, the “MIC C5” value was found to be 4 µM and the “MIC D7” value was under 2 µM. For the same molecule, the “MIC E6” value in data set [2] is under 2 µM. In data set [3], the “MIC MRSA 150-10” value is under 2 µM and the “MIC MRSA USA300” value was under 2 µM. Moreover, in data set [4], the “MIC PA82 82-8” value was under 2 µM and the “MIC PA 129-5” value was under 2 µM. Besides, the “antimicrobial activity against respiratory P. aeruginosa infection” value in the data set on P. aeruginosa is given as “excellent antimicrobial activity”. In addition, the “neutralizing LPS-induced TNF secretion” value in data set [5] is listed as “good activity; also recorded: Display Neutralizing Activities”.

As to “ILKKWWKTSKGLLGGLLGKVTSVIKGLNNI [SEQ ID No. 5]”, in data set [1], the “MIC Ef 25153” value is over 4 µM and the “MIC Ef 26125” value was under 2 µM. In data set [2], the “MIC A5” value was over 4 µM, the “MIC C3” value was 4 µM, the “MIC C5” value is 2 µM and the “MIC D7” value was under 1 µM. The “MIC E6” value in data set [2] is 4 µM. In data set [3], the “MIC MRSA 150-10” value was over 4 µM and the “MIC MRSA USA300” value was over 4 µM. Besides, in data set [4], the “MIC PA82 82-8” value was over 4 µM and the “MIC PA 129-5” value is under 1 µM. Also, the “neutralizing LPS-induced TNF secretion” value in [5] was “good activity; also recorded: display Neutralizing Activities”. This molecule also displayed an MIC in the data set with Pseudomonas aeruginosa of 2 µM.

B1: SPLUNC1-wt: wildtype version of SPLUNC1, a naturally secreted antimicrobial protein (protein, UniProt Q9NP55 20-256, looked up)
BPI fold-containing family A …: QFGGLPVPLDQTLPLNVNPALPLSPTGLAGSLTNALSNGLLSGGLLGILENLPLLDILKPGGGTSGGLLGGLLGKVTSVIPGLNNIIDIKVTDPQLLELGLVQSPDGHRLYVTIPLGIKLQVNTPLVGASLLRLAVKLDITAEILAVRDKQERIHLVLGDCTHSPGSLQISLLDGLGPLPIQGLLDSLTGILNKVLPELVQGNVCPLVNEVLRGLDITLVHDIVNMLIHGLQFVIKV
As for B1, the antimicrobial activity entry with MRSA USA300 and in the data set with S.A. ATCC49775 was “significant antimicrobial activity” in each case.

Usually MIC stands for the least concentration at which growth counts as inhibited.
